Laboratory results published in patent US9757408B2 (Hayashibara Co., Ltd., priority 2010, dated 2017).
Marks after values point to notes of the source that are not given here.

Legend:
[1] = tested on: TNF-α production of HUVEC cells; assay: TNF-α production of HUVEC cells, LPS/IL-1β/IFN-γ (Experiment 6-1); format: cell-based, human; conditions: for TNF-α Concentration: HUVEC, LPS 10 μg/mL, IL-1β, IFN-γ; for IC50: Homo sapiens, LPS in the coexistence of IL-1β and IFN-γ, read-out: IC50 against production inhibition of TNF-α
From the text: The results are in Table 6 in parallel.

[2] = tested on: tissue factor expression in HUVEC cells; assay: Expression of tissue factor in HUVEC cells, ELISA of cell lysate (Experiment 6-2); format: cell-based, human; conditions: for concentration which significantly inhibited the expression of tissue factor: LPS; for concentration which significantly inhibited the expression of tissue factor / Amount of expressed tissue factor: IL-1β, IFN-γ; for Amount of expressed tissue factor: HUVEC, LPS 10 μg/mL
Description: Thereafter, a solution of LPS, IL-1β, and IFN-γ were respectively prepared to give respective concentrations of 10 μg/mL, 2 ng/mL, and 500 IU/mL, added to the cells in an amount of 50 μL/well, and incubated at 37° C. for 5.5 hours in a 5% v/v CO2 incubator. After the culture, the cells were washed twice with PBS, followed by adding PBS to the resulting cells in a volume of 50 μL/well. The multi-plates were subjected to a freezing at −80° C. and thawing process thrice, followed by adding 50 mM Tris buffer (pH 7.4) containing 100 mM NaCl and 0.2% Triton X-100 to the microplates in an amount of 50 μL/well, culturing the cells at 4° C. overnight to prepare a cell lysate. The content of tissue factor in the cell lysate was determined by “AssayMax Human Tissue Factor ELISA Kit”, a product name of ELISA commercialized by Assay Pro, USA.

[3] = tested on: VCAM-1 expression in HUVEC cells; assay: Expression of cell-adhesion factor VCAM-1 on HUVEC cells, fluorescent intensity (Experiment 6-3); format: cell-based, human; conditions: LPS 10 μg/mL, IL-1β, IFN-γ
Description: Thereafter, the supernatant in each well was removed by suction, and the cells were washed twice with PBS, followed by adding 4% paraformaldehyde to the cells and allowing them to stand at ambient temperature for one hour to fix them. After the fixation, the cells were washed thrice with PBS, followed by adding PBS containing 1% BSA and 0.05% NaN3 in an amount of 150 μL/well, and subjecting the cells to blocking at 4° C. overnight. […] Thereafter, the cells were washed four times with PBS, adding an HRPO-labeled streptavidin (“Streptavidin HRP Conjugate”, a product name of Invitrogen Corporation, CA, USA), which had been diluted with PBS containing 3% BSA by 1,000 times, in an amount of 100 μL/well and allowing the cells to stand at ambient temperature for one hour. Finally, the cells were washed four times with PBS, allowed to develop color for 10 min with “QuantaBlue™ Fluorogenic Peroxidase Substrate”, commercialized by Pierce Biotechnology, IL, USA, and determined the cells' fluorescent intensity at a wavelength of 325 to 420 nm. […] The results are in Table 6 in parallel.

[4] = tested on: IL-6 in serum of mice administered with LPS; assay: Serum IL-6 in LPS-administered mice, oral administration (Experiment 11); format: in vivo, BALB/c mice; conditions: LPS 18 mg/kg i.p., serum 90 min after LPS
Description: The seven mice in another one group were orally administered through a gastric tube with 3′-glucosyl-adenosine N1-oxide, which had been dissolved in PBS, at a dose of 200 mg/kg body weight in a liquid volume of 0.2 mL/head (Experiment group 4). The seven mice in the remaining one group were orally administered through a gastric tube with PBS in a liquid volume of 0.2 mL/head (Experiment group 1). All the mice were intraperitoneally administered with an LPS specimen derived from E. coli (055:B5), commercialized by Sigma-Aldrich Corporation, St. Louis, Mo. USA, which had been dissolved in PBS, at a dose of 18 mg/kg body weight (Experiment groups 1 to 4). For each group, the mice were collected blood from their tail veins at 90 min after administering LPS, followed by assaying the concentrations of TNF-α, IL-6, and IL-10 contained in serum by the same method as in […].

NHDF cells = assay: Cell survival rate of NHDF cells after hydrogen peroxide oxidant stress (Experiment 18); format: cell-based, human
Description: To the wells, which had not been treated with hydrogen peroxide, was added 100 μL/well of Hanks' solution. […] Thereafter, the supernatant in each well was removed by sucking, and “CELL COUNTING KIT-8”, a product name of a reagent solution for counting viable cells, commercialized by Dojindo Molecular Technologies, Inc., Kumamoto, Japan, which had been diluted with D-MEM medium supplemented with 10% FCS by 20-times, was added to the wells in an amount of 100 μL/well, followed by incubating the cells in a 5% v/v CO2 incubator at 37° C. for two hours. Finally, the microplates were measured for absorbance at a wavelength of 450 nm on a plate reader. For each well, a relative absorption value was determined when the absorbance of a well of NHDF cells, which had been cultured by the addition of only medium, was regarded as 100, and it is expressed as a cell survival rate (%) in Table 21.

BALB/c mice = assay: Acute toxicity test, intraperitoneal (Experiment 20); conditions: mouse, in vivo, ip
Description: As a control, only PBS was intraperitoneally administered to 10 BALB/c mice (6-week-old, female, average weight of 20 g, commercialized by Charles River Laboratories Japan Inc., Tokyo, Japan) at a dose of 1 mL/head, followed by observing the course of the mice for 24 hours.

Compound: Nc1c2ncn([C@@H]3O[C@H](CO)[C@@H](O)[C@H]3O)c2nc[n+]1[O-] [ANO, adenosine N1-oxide]
- TNF-α production inhibitory action stronger than that of adenosine ([1]; HUVEC cells, comparison of IC50): about 16 times
- TNF-α Concentration ([1]; test substance 0.2 μM): 51 pg/mL
- TNF-α Concentration ([1]; test substance 0.5 μM): 41.1 pg/mL
- TNF-α Concentration ([1]; test substance 1 μM): 25.1** pg/mL
- TNF-α Concentration ([1]; test substance 2 μM): 12.3** pg/mL
- TNF-α Concentration ([1]; test substance 5 μM): 1.8** pg/mL
- IC50 ([1]; HUVEC cells): 0.97 µM
- inhibitory strength on tissue factor expression, stronger than adenosine ([2]; HUVEC cells): at least 10 times
- concentration which significantly inhibited the expression of tissue factor ([2]; HUVEC cells): at least 0.5 μM
- Amount of expressed tissue factor ([2]; test substance 0.2 μM): 27.6
- Amount of expressed tissue factor ([2]; test substance 0.5 μM): 13.5**
- Amount of expressed tissue factor ([2]; test substance 1 μM): 12.9**
- Amount of expressed tissue factor ([2]; test substance 2 μM): 9.4**
- Amount of expressed tissue factor ([2]; test substance 5 μM): 0**
- Amount of expressed tissue factor ([2]; test substance 10 μM): 0**
- Amount of expressed VCAM-1 ([3]; test substance 0.2 μM): 4,123
- Amount of expressed VCAM-1 ([3]; test substance 0.5 μM): 4,052
- Amount of expressed VCAM-1 ([3]; test substance 1 μM): 3,920
- Amount of expressed VCAM-1 ([3]; test substance 2 μM): 3,967
- Amount of expressed VCAM-1 ([3]; test substance 5 μM): 3,603*
- Amount of expressed VCAM-1 ([3]; test substance 10 μM): 2,823**
- Amount of IL-6 ([4]; oral 100 mg/kg): 17.5 ng/mL
- Amount of IL-6 ([4]; oral 200 mg/kg): 16.0* ng/mL
- Cell survival rate (NHDF cells; addition of hydrogen peroxide: No, 3.12 μM): 100%
- Cell survival rate (NHDF cells; addition of hydrogen peroxide: No, 6.25 μM): 100%
- Cell survival rate (NHDF cells; addition of hydrogen peroxide: No, 12.5 μM): 100%
- Cell survival rate (NHDF cells; addition of hydrogen peroxide: No, 25.0 μM): 100%
- Cell survival rate (NHDF cells; addition of hydrogen peroxide: Yes, 3.1 μM): 35%
- Cell survival rate (NHDF cells; addition of hydrogen peroxide: Yes, 6.3 μM): 81%
- Cell survival rate (NHDF cells; addition of hydrogen peroxide: Yes, 12.5 μM): 83%
- Cell survival rate (NHDF cells; addition of hydrogen peroxide: Yes, 25.0 μM): 89%
- influence on the cell survival rate without hydrogen peroxide (NHDF cells; concentrations used in this experiment (Experiment groups 7 to 10)): No influence
- Cell survival rate (NHDF cells; hydrogen peroxide 200 μM, then ANO 25 μM for 24 hours, medium only = 100): 89%
- LD50 (BALB/c mice): ≥ 1,000 mg/kg body weight
- change in appearance after administration (BALB/c mice): no change in appearance

Compound: Nc1ncnc2c1ncn2[C@@H]1O[C@H](CO)[C@@H](O)[C@H]1O [AN, adenosine]
- TNF-α Concentration ([1]; test substance 1 μM): 53 pg/mL
- TNF-α Concentration ([1]; test substance 2 μM): 49.2 pg/mL
- TNF-α Concentration ([1]; test substance 5 μM): 40.3 pg/mL
- TNF-α Concentration ([1]; test substance 10 μM): 31.1** pg/mL
- IC50 ([1]; HUVEC cells): 15.2 µM
- concentration which significantly inhibited the expression of tissue factor ([2]; HUVEC cells): at least 5 μM
- Amount of expressed tissue factor ([2]; test substance 1 μM): 27.1
- Amount of expressed tissue factor ([2]; test substance 2 μM): 26.6
- Amount of expressed tissue factor ([2]; test substance 5 μM): 13.9**
- Amount of expressed tissue factor ([2]; test substance 10 μM): 4.5**
- Amount of expressed VCAM-1 ([3]; test substance 1 μM): 3,824
- Amount of expressed VCAM-1 ([3]; test substance 2 μM): 3,957
- Amount of expressed VCAM-1 ([3]; test substance 5 μM): 3,609**
- Amount of expressed VCAM-1 ([3]; test substance 10 μM): 2,823**
